# Calls of active or inactive are those of the source.
# Tests used:
# [1] = target: Glucose-6-phosphate 1-dehydrogenase (Homo sapiens, UniProt P11413); experiment: human G6PD enzyme inhibitors, dose response, selectivity assay for P. falciparum G6PD inhibitor project, biochemical, fluorescence (AID 504792); format: functional
# [2] = THP-1 cell cytotoxicity, dose response, cytotoxicity control for non-replicating M. tuberculosis project (AID 489025); format: functional
# [3] = Vero E6 cell cytotoxicity, dose response, cytotoxicity control for non-replicating M. tuberculosis project, secondary assay (AID 492998); format: functional, VeroE6; conditions: Vero C1008
# Aminopeptidase N = target: T1, Aminopeptidase N (Plasmodium falciparum FcB1/Columbia, UniProt O96935); experiment: P. falciparum M1AAP inhibitors, biochemical, fluorogenic H-Leu-NHMec substrate, 1536-well (AID 1445); design: species or system Plasmodium falciparum 3D7, 3D7
# T1 sequence (O96935 whole entry): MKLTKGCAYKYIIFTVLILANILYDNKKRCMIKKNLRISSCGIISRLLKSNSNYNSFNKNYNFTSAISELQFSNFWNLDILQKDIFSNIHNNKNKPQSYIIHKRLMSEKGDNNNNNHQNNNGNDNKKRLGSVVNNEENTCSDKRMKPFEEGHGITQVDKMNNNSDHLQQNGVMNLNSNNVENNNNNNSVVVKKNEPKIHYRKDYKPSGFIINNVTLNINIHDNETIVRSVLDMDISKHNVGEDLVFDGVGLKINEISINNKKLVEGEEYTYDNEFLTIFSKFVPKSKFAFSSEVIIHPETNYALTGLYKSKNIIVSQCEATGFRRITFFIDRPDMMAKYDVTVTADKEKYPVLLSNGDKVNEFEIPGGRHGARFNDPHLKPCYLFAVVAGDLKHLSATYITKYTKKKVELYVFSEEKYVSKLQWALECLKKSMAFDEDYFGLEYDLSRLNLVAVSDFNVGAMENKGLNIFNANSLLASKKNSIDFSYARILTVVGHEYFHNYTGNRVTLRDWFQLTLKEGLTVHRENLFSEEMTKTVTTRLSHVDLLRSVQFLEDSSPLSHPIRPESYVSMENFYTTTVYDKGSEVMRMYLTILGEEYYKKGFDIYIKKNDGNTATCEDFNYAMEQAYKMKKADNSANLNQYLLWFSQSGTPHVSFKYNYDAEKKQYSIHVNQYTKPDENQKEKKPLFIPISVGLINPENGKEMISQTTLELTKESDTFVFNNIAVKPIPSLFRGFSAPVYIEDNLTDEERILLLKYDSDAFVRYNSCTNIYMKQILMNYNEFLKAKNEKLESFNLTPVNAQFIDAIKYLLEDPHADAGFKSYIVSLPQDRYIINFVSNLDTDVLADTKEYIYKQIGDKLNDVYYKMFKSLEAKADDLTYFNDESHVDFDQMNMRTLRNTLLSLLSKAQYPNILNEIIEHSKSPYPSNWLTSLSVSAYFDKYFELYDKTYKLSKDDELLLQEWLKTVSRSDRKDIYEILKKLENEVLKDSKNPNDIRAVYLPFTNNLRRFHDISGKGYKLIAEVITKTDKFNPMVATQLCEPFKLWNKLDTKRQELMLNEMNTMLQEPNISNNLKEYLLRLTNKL
# Nonstructural protein 1 = Nonstructural protein 1 (Influenza A virus, UniProt Q194T2); format: functional, Influenza A virus (A/California/07/2009(H1N1))
# [4] = target: T2, DNA repair protein RAD52 homolog (Homo sapiens, UniProt P43351); format: functional, biochemical
# T2 sequence (P43351 whole entry): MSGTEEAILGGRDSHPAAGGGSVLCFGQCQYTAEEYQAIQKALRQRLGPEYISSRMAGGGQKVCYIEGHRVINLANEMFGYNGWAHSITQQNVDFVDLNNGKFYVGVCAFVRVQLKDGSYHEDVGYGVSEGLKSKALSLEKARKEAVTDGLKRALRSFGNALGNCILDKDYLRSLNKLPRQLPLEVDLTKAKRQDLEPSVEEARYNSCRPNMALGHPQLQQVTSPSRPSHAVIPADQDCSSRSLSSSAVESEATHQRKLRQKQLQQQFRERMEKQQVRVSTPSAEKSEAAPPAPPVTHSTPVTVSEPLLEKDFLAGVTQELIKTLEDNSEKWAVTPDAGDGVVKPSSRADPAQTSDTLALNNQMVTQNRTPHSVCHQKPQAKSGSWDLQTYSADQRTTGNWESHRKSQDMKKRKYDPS
# cells = format: functional
# [5] = NIH-3T3 fibroblast cytotoxicity, dose response, cytotoxicity control, cell-based, fluorescence, Alamar Blue, secondary assay (AID 2327); format: functional;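 also: NIH-3T3 mouse fibroblasts cultured with fluconazole at 8 µg/mL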
# [6] = C. albicans growth with fluconazole, confirmation, fluorescence, retest (AID 2467); format: functional, cell-based
# [7] = A cytotoxicity screen of small molecule inhibitors of the PhoP region in Salmonella typhi identified in the primary screen. [Related pubchem assays: 1850, 1864, 1985 ]; format: functional
# [8] = target: Glyceraldehyde-3-phosphate dehydrogenase (Homo sapiens, UniProt P04406)
# Protein RecA = target: T3, Protein RecA (Mycobacterium tuberculosis, UniProt P9WHJ3); experiment: Fluorescence Cell-Free Homogeneous Dose Retest to Identify Inhibitors of RecA-Intein Splicing Activity. [Related pubchem assays (depositor defined):AID2097, AID2223, AID489010, AID492950]; format: functional
# T3 sequence (P9WHJ3 whole entry): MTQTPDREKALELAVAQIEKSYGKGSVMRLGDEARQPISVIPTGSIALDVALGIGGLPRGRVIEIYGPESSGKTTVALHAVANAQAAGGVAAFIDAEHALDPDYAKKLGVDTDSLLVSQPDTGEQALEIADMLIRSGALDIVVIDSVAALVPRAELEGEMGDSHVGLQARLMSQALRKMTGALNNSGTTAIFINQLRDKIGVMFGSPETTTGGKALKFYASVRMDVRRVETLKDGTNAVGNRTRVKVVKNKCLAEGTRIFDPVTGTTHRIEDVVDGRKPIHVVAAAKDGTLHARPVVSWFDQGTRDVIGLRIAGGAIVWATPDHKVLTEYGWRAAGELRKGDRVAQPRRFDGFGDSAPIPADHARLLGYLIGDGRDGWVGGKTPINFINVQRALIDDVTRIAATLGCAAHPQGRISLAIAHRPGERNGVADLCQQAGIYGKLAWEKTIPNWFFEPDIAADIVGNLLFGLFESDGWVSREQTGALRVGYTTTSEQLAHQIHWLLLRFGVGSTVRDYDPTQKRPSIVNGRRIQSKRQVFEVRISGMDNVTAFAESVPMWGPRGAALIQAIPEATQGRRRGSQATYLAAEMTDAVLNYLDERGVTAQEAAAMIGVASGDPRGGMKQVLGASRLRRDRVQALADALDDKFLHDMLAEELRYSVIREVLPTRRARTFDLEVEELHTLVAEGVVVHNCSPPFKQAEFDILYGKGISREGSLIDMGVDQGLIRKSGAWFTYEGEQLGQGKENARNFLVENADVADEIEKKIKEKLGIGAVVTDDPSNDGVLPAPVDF
# [9] = target: T4, Replicative DNA helicase DnaB (Mycobacterium tuberculosis, UniProt P9WMR3); experiment: DnaB intein splicing inhibitors, dose response, biochemical, cell-free fluorescence (AID 449749); format: functional
# T4 sequence (P9WMR3 whole entry): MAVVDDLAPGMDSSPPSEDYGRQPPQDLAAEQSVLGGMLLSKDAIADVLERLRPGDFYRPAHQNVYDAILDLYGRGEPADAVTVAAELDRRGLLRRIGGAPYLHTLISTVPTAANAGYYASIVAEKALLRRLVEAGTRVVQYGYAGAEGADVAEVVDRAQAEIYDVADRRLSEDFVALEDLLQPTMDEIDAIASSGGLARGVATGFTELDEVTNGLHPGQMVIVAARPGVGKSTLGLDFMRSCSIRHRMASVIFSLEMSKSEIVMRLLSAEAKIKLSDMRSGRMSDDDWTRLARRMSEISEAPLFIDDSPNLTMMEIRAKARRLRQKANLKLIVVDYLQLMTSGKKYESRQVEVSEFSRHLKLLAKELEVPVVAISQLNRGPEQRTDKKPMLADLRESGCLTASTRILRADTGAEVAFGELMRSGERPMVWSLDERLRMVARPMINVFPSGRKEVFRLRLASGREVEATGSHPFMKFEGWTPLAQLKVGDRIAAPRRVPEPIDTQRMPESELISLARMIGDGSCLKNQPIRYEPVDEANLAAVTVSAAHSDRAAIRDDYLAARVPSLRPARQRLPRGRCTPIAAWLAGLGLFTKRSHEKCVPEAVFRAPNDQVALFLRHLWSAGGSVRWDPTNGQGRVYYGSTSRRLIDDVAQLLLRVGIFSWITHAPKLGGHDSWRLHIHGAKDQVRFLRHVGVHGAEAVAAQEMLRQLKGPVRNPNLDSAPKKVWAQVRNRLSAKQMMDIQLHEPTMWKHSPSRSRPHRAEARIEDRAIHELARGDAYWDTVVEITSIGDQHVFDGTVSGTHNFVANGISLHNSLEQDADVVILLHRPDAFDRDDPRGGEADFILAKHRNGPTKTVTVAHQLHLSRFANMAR
# Genome polyprotein = Genome polyprotein (dengue virus type 2, UniProt P29990); experiment: Dengue-2 NS5 methyltransferase inhibitors, primary screen, biochemical, confirmation dose response (AID 588689); format: functional
# [10] = target: T5, Ubiquitin-conjugating enzyme E2 N (Homo sapiens, UniProt P61088); format: functional;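 also: Dose-response confirmation in a TR-FRET assay detecting UBC13-driven polyubiquitin chain formation, inhibition measured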
# T5 sequence (P61088 whole entry): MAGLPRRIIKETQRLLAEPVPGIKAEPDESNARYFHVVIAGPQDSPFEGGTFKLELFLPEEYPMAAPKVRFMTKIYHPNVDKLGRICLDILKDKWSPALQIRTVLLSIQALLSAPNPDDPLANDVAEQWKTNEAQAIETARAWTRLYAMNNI
# Sequence of Nonstructural protein 1 (Q194T2 whole entry): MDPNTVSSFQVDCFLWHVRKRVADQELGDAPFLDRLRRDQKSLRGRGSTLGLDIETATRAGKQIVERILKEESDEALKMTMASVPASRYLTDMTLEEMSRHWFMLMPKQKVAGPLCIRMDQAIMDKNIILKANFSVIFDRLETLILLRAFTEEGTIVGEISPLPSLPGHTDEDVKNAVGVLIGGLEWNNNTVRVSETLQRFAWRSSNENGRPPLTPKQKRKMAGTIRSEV
# Sequence of Glucose-6-phosphate 1-dehydrogenase (P11413 whole entry): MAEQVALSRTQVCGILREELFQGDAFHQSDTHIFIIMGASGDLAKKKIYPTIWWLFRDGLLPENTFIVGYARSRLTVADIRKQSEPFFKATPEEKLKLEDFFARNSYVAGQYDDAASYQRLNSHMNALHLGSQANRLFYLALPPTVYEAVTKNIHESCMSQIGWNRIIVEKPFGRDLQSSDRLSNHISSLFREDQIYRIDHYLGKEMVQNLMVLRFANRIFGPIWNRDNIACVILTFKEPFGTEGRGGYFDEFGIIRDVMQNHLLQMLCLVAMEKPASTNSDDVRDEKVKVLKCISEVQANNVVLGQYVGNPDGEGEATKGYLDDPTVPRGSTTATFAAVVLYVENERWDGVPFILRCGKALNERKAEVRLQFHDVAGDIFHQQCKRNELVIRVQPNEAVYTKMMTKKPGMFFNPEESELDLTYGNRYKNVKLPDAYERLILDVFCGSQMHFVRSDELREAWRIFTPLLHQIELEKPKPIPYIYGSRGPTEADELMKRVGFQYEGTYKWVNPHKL
# Sequence of Glyceraldehyde-3-phosphate dehydrogenase (P04406 whole entry): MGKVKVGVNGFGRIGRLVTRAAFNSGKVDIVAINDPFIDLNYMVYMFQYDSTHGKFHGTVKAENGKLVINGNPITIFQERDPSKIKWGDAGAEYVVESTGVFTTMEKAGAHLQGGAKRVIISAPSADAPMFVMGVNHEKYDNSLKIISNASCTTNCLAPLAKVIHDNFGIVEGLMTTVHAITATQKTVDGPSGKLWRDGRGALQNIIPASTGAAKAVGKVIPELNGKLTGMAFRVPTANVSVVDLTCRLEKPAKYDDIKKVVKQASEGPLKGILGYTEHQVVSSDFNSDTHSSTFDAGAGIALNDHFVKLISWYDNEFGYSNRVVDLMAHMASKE
# Sequence of Genome polyprotein (P29990 2492-3391 limits assumed): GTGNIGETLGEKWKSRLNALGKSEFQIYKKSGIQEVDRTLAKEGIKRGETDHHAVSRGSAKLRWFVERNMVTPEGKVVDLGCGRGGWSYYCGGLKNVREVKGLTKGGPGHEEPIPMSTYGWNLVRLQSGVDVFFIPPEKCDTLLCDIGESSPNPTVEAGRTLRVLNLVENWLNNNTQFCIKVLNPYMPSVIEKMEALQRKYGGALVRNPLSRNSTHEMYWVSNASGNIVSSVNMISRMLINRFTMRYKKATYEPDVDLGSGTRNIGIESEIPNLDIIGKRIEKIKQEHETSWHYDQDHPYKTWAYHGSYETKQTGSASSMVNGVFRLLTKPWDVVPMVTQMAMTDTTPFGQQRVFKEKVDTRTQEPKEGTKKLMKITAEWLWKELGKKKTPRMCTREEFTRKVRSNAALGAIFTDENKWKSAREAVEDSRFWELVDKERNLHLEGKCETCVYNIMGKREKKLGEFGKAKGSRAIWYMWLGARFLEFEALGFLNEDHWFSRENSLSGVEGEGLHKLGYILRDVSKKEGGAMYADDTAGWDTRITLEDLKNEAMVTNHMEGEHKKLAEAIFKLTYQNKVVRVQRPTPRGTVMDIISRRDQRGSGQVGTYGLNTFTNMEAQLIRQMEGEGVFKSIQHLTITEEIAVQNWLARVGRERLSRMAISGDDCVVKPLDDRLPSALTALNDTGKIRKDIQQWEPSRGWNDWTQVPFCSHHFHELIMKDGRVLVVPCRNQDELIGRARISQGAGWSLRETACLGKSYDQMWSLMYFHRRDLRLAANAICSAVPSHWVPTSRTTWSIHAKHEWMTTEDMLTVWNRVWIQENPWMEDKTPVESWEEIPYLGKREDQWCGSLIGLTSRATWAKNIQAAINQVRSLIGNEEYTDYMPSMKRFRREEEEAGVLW
smiles,measurement,setting,value
COc1cc(NCc2ccccc2)c2ncn(Cc3ccccc3)c2c1,IC50,[1],> 80 µM (inactive)
COc1ccc(CCCC(=O)NCc2ccccc2)cc1C,CC50,[2],9.44 µM (active)
same,CC50,[3],> 20 µM (active)
O=C1c2cccc3cccc(c23)C(=O)N1CCCc1nnc(S)n1-c1ccccc1,IC50,Aminopeptidase N,17.9 µM (active)
COc1cc(/C=C2\SC(c3ccccc3)=NC2=O)cc(Cl)c1O,IC50,Aminopeptidase N,20 µM (active)
same,IC50,Nonstructural protein 1,12.7 µM (active)
CCOc1ccc2[nH]c3c(c2c1)CNCC3,AC50,[4],26.8 µM (active)
COc1ccccc1NC(=O)CSc1ccc(-c2ccccn2)nn1,IC50,Nonstructural protein 1,7.99 µM (active)
CCc1ccc(Cc2cnc(NC(=O)C3=NCCN3)s2)cc1,CC50,[2],> 40 µM (active)
same,IC50,cells,9.25 µM (active)
COCc1cc(CN2CCN(C)CC2)c(O)c2ncccc12,EC50,[5],> 160 µM (inactive)
same,EC50,[6],> 38 µM (not active)
same,IC50,Nonstructural protein 1,4.15 µM (active)
Cc1cccc(C(=O)Nc2nnc(S(=O)(=O)N3CCOCC3)s2)c1,IC50,[1],54.4 µM (inactive)
COc1ccccc1NC(=O)Cn1nc(-c2ccncc2)nc1SCC(=O)NC1CCCC1,EC50,[7],> 50 µM (active)
Cc1ccsc1C(C(=O)NC1CCCCC1)N(C(=O)c1csnn1)C1CC1 (centres undefined),IC50,Aminopeptidase N,87.7 µM (active)
CC1CCCCN1S(=O)(=O)c1ccc(S(=O)(=O)NCCc2ccncc2)cc1 (centres undefined),EC50,[7],> 50 µM (active)
COc1cccc(NC(=O)CSc2nn3c(=O)c(C)nnc3s2)c1,IC50,Nonstructural protein 1,11.3 µM (active)
CC(C)Cc1nc(N2CCOCC2)c(C#N)c2c1COC(C)(C)C2,EC50,[7],> 50 µM (active)
O=C1C(Cl)=C(N2CCN(Cc3ccc4c(c3)OCO4)CC2)C(=O)N1c1cccc(C(F)(F)F)c1,IC50,[8],> 50 µM (inconclusive)
Cc1oc2cc([N+](=O)[O-])c(O)c([N+](=O)[O-])c2c1C(=O)c1ccc(Br)cc1,IC50,Aminopeptidase N,77 µM (active)
same,EC50,Protein RecA,7.96 µM (active)
same,AC50,[9],8.65 µM (active)
same,IC50,Genome polyprotein,45.2 µM (active)
COc1cccc(-c2nnc(SCC(=O)O)[nH]2)c1,IC50,[8],> 100 µM (not active)
CC1(C)Cc2c(sc3nc4n(-c5ccccc5)c(=O)c(CCC(=O)O)nn4c(=O)c23)CO1,IC50,[1],34.1 µM (inactive)
CN(C)CCCN(C(=O)c1ccc(C(=O)c2ccccc2)cc1)c1nc2cc3c(cc2s1)OCO3,IC50,[10],> 20 µM (inactive)
same,AC50,[4],7.81 µM (active)
CCOC(=O)COn1c(=O)c(-c2cccs2)[n+]([O-])c2ccccc21,EC50,[7],> 50 µM (active)
CCc1ccc(NC(=O)Nc2ccncc2)cc1,EC50,[7],> 50 µM (active)
COc1ccc(OC)c(CCNC(=O)CS(=O)(=O)Cc2nc(-c3ccccc3C)oc2C)c1,EC50,[7],> 50 µM (active)
COc1ccc2c(c1)CC1c3c(cc4c(c3-2)OCO4)CC[N+]1(C)[O-] (centres undefined),AC50,[4],3.38 µM (active)
CCCCN(CC)Cc1c(O)ccc2c3c(c(=O)oc12)CCC3,IC50,Aminopeptidase N,57.7 µM (active)
CCN1CCCC1CNC(=O)c1ccc2c(c1)NC(=O)/C(=C\c1ccccc1F)S2 (centres undefined),IC50,[1],> 80 µM (inactive)
same,AC50,[4],6.33 µM (active)
C#CCOCCOCCOCCNc1nc(N2CCN(C(=O)Cn3cc(CCCN=C(N)N)nn3)CC2)nc(N2CCN(C(=O)[C@H](CCCCN)n3cc(CCCC)nn3)CC2)n1,AC50,[4],34 µM (active)
C/C(Cn1nnc([N+](=O)[O-])n1)=N\NC(=O)c1ccc(O)cc1,IC50,[1],> 80 µM (inactive)
O=C(N/N=C/c1ccccc1C(=O)O)c1cc(-c2ccc3c4c(cccc24)CC3)[nH]n1,IC50,Aminopeptidase N,85.2 µM (active)
CC(=O)O[C@H]1C[C@@H]2CC[C@@H]3[C@H](CC[C@@]4(C)[C@H]3C[C@H]([N+]3(C)CCCCC3)[C@@H]4OC(C)=O)[C@@]2(C)C[C@@H]1[N+]1(C)CCCCC1 [PANCURONIUM BROMIDE],AC50,[4],8.3 µM (active)
